Experimental data from patent US20190167711A1, “METHODS FOR DIAGNOSIS AND TREATMENT OF ACUTE LYMPHOBLASTIC LEUKEMIA” (MOR RESEARCH APPLICATIONS LTD., priority 2014, published 2019).

Experiments:
Nalm-6 cells [1] = assay: Tumor growth of transfected Nalm-6 cells injected s.c. into NOD/SCID mice; type: in vivo
From the text: As described herein, decreased expression of miR-451 in comparison to a control level can serve as a prognostic factor for ALL relapse risk, as low expression of miR-451 at first diagnosis predicts worse outcome. […] Scrambled miRNA-transfected cells served as negative control (Nalm-6/miR-NC). Quantitative reverse transcription PCR (RT-qPCR) was used to confirm miR-451 expression in the transfected cells.
To further study the putative tumor-suppressive function of hsa-miR-451 in vivo, 10^7 viable Nalm-6 cells either untransfected, transfected in vitro with miR-451 mimic, or transfected with scrambled miR (control), were injected sub-cutaneously (s.c.) into the right flanks of 6-week-old female NOD/SCID mice. […] On day 26, the median tumor volume in the scrambled control mice and the miR-451 mimic mice were 204.69 mm^3 (SE=63.96) and 23.32 mm^3 (SE=13.12), respectively (p=0.019). At the end of the experiment, mice were sacrificed, and the tumors were weighted. The median tumor weight in the scrambled control mice and the miR-451 mimic mice were 0.0966 gr (SE=0.040) and 0.0159 gr (SE=0.0009), respectively (p=0.046) (FIG. 4C).

Nalm-6 cells [2] = assay: Annexin V-FITC apoptosis assay in Nalm-6 cells; type: cell-based; conditions: NALM-6 cells, transient expression
From the text: Cells were stained with annexin V-fluorescein-5-isothiocyanate (FITC) conjugated antibody and propidium iodide (PI) using the Annexin V-FITC Apoptosis Detection Kit (ab14085, Abcam® Incorporated, Cambridge, Mass., USA) according to manufacturer's instructions (see, for example, https://www.abcam.com/ps/products/14/ab14085/documents/ab14085%20Annexin %20V%20FITC%20Apoptosis%20Detection%20Kit%20v4%20(website).pdf), and read on the flow cytometer. Annexin V Apoptosis Detection Kit is based on the observation that soon after initiating apoptosis, cells translocate the membrane phosphatidylserine (PS) from the inner face of the plasma membrane to the cell surface. Once on the cell surface, PS can be easily detected by staining with a fluorescent conjugate (e.g., FITC) of Annexin V, a protein that has a high affinity for PS. The one-step staining procedure takes only 10 minutes. When performing both Annexin V-FITC and PI staining, it is possible to differentiate apoptosis vs necrosis.
(§1) To measure the effect of NAD^+ depletion following FK866 treatment of Nalm-6 cells, apoptosis and viability were measured as described in Materials and Methods. Nalm-6 cells were treated for 48 hours with 1 nM FK866, and then apoptosis was measured using FACS.

Nalm-6 cells [3] = assay: XTT cell viability assay in Nalm-6 cells; type: cell-based; conditions: NALM-6 cells, transient expression
Experimental: Cell viability assay was performed using the Cell Proliferation Kit comprising the second-generation tetrazolium dye, XTT. Viable cells with active metabolism convert XTT into an orange colored reduction product, whereas dead cells lose the ability to reduce XTT, thus, color formation serves as a useful and convenient marker of only the viable cells.
The XTT kit was applied to NALM6 transfected cells according to the manufacturer's protocol (Biological Industries, Kibbutz Beit Haemek, Israel). Cells were incubated for 3 hours with the XTT reagent and quantity of reduced XTT (directly proportional to the number of viable cells) was assessed by recording changes in absorbance as measured on a microplate reader at 450-500 nm optical density (OD).
as §1

NAMPT = assay: Western blot of NAMPT in transfected NALM-6 cells; type: cell-based; conditions: NALM-6 transient
From the text: (§2) Protein was extracted from NALM-6 cell line using Qproteome™ lysis buffer (Qiagen, Hilden, Germany). The membrane was then probed with one or more of the following antibodies: anti-disintegrin and metalloproteinase domain-containing protein 10 (ADAM10) (1:1000) (Abcam; Cambridge, UK) (see Example 9); anti-chemokine C-X-C motif 16 (CXCL16) (1:1000); anti-NAMPT (1:1000); and anti-GAPDH (1:5000) (Santa Crus Biotechnology, Santa Crus, Calif., USA) (see Examples 5 and 9). The secondary antibodies were goat anti-mouse and goat anti-rabbit (1:10,000) (Sigma®, Saint Louis, Mo., USA), for each antigen according to the manufacturer's instructions. […]
(§3) Intensity of the protein band was measured using an in-house program. […]
(§4) Possible miR-451 targets were evaluated using several open access software programs (e.g., Targetscan, PicTar, miRanda, miRDB). […] In the first screening, the suppression of ADAM10, CXCL16 and NAMPT protein level was analyzed in NALM-6 cells transiently expressing miR-451 mimic (SEQ ID NO: 2) and in cells transiently expressing scrambled-miR (universal sequence; negative control) by Western blot as described in Materials and Methods. […]

ADAM10 = assay: Western blot of ADAM10 in transfected NALM-6 cells; type: cell-based; conditions: NALM-6 transient
From the text: as §2, §3, §4

CXCL16 = assay: Western blot of CXCL16 in transfected NALM-6 cells; type: cell-based; conditions: NALM-6 transient
From the text: as §2, §3, §4

miR-451 mimic: a dsmiR-451 designed to copy or mimic the functionality of mature endogenous miR-451 upon transfection (AAACCGUUACCAUUACUGAGUU; double-stranded mimic, further chemistry not given here; listed as Homo sapiens)
tumor growth vs scrambled miR control cells (Nalm-6 cells [1]; after 20 days): significantly decreased tumor growth | median tumor volume (Nalm-6 cells [1]; day 26, 10^7 transfected Nalm-6 cells s.c., female NOD/SCID mice): 23.32 mm^3 | median tumor weight (Nalm-6 cells [1]; end of the experiment): 0.0159 gr | effect on apoptosis rate (Nalm-6 cells [2]): No effect | effect on viability (Nalm-6 cells [3]): No effect | NAMPT protein expression levels compared to scrambled-miR (NAMPT): reduced | ADAM10 protein level compared to scrambled-miR (ADAM10): only NAMPT protein expression levels were reduced | CXCL16 protein level compared to scrambled-miR (CXCL16): only NAMPT protein expression levels were reduced
